We go through 8 compounds from patent US9334279B2, “Hepatitis C virus inhibitors” (BRISTOL-MYERS SQUIBB COMPANY, priority 2012, dated 2016).

Structures are written as SMILES. Where two headings read alike, the source gives them in different places.

The test system of experiment [1] is HCV GT1a(H77) replicon. Description: HCV replicon luciferase reporter assay, genotype 1a. The experiment is classed as cell-based, HCV genotype 1a. To be noted: Hepatitis C virus, 72 h, HUH-7 cells, Renilla luciferase, 3 days incubation. The source says: A stable HCV GT1a(H77) replicon luciferase reporter cell line (Yanagi M, Purcell RH, Emerson S U, et al. Transcripts from a single full-length cDNA clone of hepatitis C virus are infectious when directly transfected into the liver of a chimpanzee. Proc Natl Acad Sci USA 1997; 94(16):8738-8743) was generated as described previously for the genotype 1b(Con1) replicon luciferase cell line. The replicon construct was modified by introducing mutations into the genes encoding the NS3 helicase domain (proline replaced by leucine at position 1496) and NS5A (serine to isoleucine at position 2204) to improve replication in cell culture.
(§1) HCV replicon luciferase assays were developed to monitor the inhibitory effects of compounds described in the disclosure on HCV genotypes 1a and 1b viral replication. HUH-7 cells, constitutively expressing the HCV replicon, were grown in Dulbecco's Modified Eagle Media (DMEM) (Gibco-BRL) containing 10% Fetal calf serum (FCS) (Sigma) and 1 mg/mL G418 (Gibco-BRL). Compounds were serially diluted 3 folds in DMSO for a twenty-point titration and subsequently transferred to sterile 384-well tissue-culture treated plates (Corning cat #3571). The plates were then seeded with 50 μL of cells at a density of 3.0×10^3 cells/well in DMEM containing 4% FCS (final DMSO concentration at 0.5%). After 3 days incubation at 37° C., cells were analyzed for Renilla Luciferase activity using the EnduRen as substrate (Promega cat #E6485). The EnduRen substrate was diluted in DMEM and then added to the plates to a final concentration of 7.5 μM. The plates were incubated for 2 hrs at 37° C. and then read immediately for 30 seconds with Viewlux Imager (PerkinElmer) using a luminescence program. To assess cytotoxicity of compounds, CC50 values were generated by multiplexing the EnduRen-containing plates with Cell Titer-Blue (Promega, cat #G8082). Cell-Titer Blue (3 μL) was added to each well and incubated for 8 hrs at 37° C. The fluorescence signal from each well was read, with an excitation wavelength at 525/10 nm and an emission wavelength of 598/10 nm, using the Viewlux Imager.
(§2) The EC50 values for compounds were calculated by using a four-parameter logistic equation: y=A+[…])/(1+((C/x)^D))), where A and B denotes minimal and maximal % inhibition, respectively, C is the EC50, D is the hill slope and x represents compound concentration.

Experiment [2] deals with HCV GT1b(Con1) replicon. Description: HCV replicon luciferase reporter assay, genotype 1b. To be noted: Hepatitis C virus, 72 h, HUH-7 cells, Renilla luciferase, 3 days incubation. The experiment is classed as cell-based, HCV genotype 1b.
Description: An HCV GT1b(Con1) replicon cell system was established as described by Lohmann V, Korner F, Koch J, Herian U, Theilmann L, Bartenschlager R., Science 285(5424):110-3 (1999) and modified to introduce a luciferase reporter (Krieger N, Lohmann V, and Bartenschlager R, J. Virol. 75(10):4614-4624 (2001)). cDNA encoding a humanized form of the Renilla luciferase gene, and a linker sequence fused directly to the 3′-end of the luciferase gene were introduced into the replicon construct using an Asc1 restriction site located in core, directly upstream of the neomycin marker gene. The adaptive mutation at position 1179 (serine to isoleucine) was also introduced (Blight K J, Kolykhalov, A A, Rice, C M, Science 290(5498):1972-1974). A stable cell line constitutively expressing this HCV replicon construct was generated by first linearizing plasmid DNAs with ScaI. RNA transcripts were synthesized in vitro using the T7 MegaScript transcription kit (Ambion, Austin, Tex.) according to manufacturer's directions. In vitro transcripts of the cDNA were transfected into the human hepatoma cell line, HUH-7. […] Resulting cell lines were characterized for positive and negative strand RNA production and protein production over time.
as §1, §2

As for `CC(C)Oc1ccc(-c2cc(O[C@@H]3C[C@H]4C(=O)N[C@]5(C(=O)NS(=O)(=O)C6(C)CC6)C[C@H]5/C=C\CC[C@@H](C)C[C@@H](C)[C@H](NC(=O)OC(C)(C)C(F)(F)F)C(=O)N4C3)cc(-n3cccn3)n2)cc1` [Compound 1013, 1,1,1-trifluoro-2-methylpropan-2-yl ((2R,6S,7R,9R,13aS,14aR,16aS,Z)-2-((2-(4-isopropoxyphenyl)-6-(1H-pyrazol-1-yl)pyridin-4-yl)oxy)-7,9-dimethyl-14a-(((1-methylcyclopropyl)sulfonyl)carbamoyl)-5,16-dioxo-1,2,3,5,6,7,8,9,10,11,13a,14,14a,15,16,16a-hexadecahydrocyclopropa[e]pyrrolo[1,2-a][1,4]diazacyclopentadecin-6-yl)carbamate], the EC50 in experiment [1] (read-out: LE_1a (EC50, range)) was in the range of 1.01 to 5 nM; in experiment [2] (read-out: LE_1b (EC50, range)), 1.01 to 5 nM.
Take `CC(C)Oc1ccc(-c2cc(O[C@@H]3C[C@H]4C(=O)N[C@]5(C(=O)NS(=O)(=O)C6(C)CC6)C[C@H]5/C=C\CC[C@H](C)C[C@@H](C)[C@H](NC(=O)OC(C)(C)C(F)(F)F)C(=O)N4C3)cc(-n3cccn3)n2)cc1` [Compound 1014, 1,1,1-trifluoro-2-methylpropan-2-yl ((2R,6S,7R,9S,13aS,14aR,16aS,Z)-2-((2-(4-isopropoxyphenyl)-6-(1H-pyrazol-1-yl)pyridin-4-yl)oxy)-7,9-dimethyl-14a-(((1-methylcyclopropyl)sulfonyl)carbamoyl)-5,16-dioxo-1,2,3,5,6,7,8,9,10,11,13a,14,14a,15,16,16a-hexadecahydrocyclopropa[e]pyrrolo[1,2-a][1,4]diazacyclopentadecin-6-yl)carbamate]: the half-maximal effective concentration (EC50) was in the range of 35 to 359 nM in experiment [1] (read-out: LE_1a (EC50, range)) and 5.01 to 35 nM in experiment [2] (read-out: LE_1b (EC50, range)).
On the same counts, the results for `Cc1cc(O[C@@H]2C[C@H]3C(=O)N[C@]4(C(=O)NS(=O)(=O)C5(C)CC5)C[C@H]4/C=C\CC[C@@H](C)C[C@@H](C)[C@H](NC(=O)OC(C)(C)C(F)(F)F)C(=O)N3C2)cc(-c2cncs2)n1` [Compound 1015, 1,1,1-trifluoro-2-methylpropan-2-yl ((2R,6S,7R,9R,13aS,14aR,16aS,Z)-7,9-dimethyl-2-((2-methyl-6-(thiazol-5-yl)pyridin-4-yl)oxy)-14a-(((1-methylcyclopropyl)sulfonyl)carbamoyl)-5,16-dioxo-1,2,3,5,6,7,8,9,10,11,13a,14,14a,15,16,16a-hexadecahydrocyclopropa[e]pyrrolo[1,2-a][1,4]diazacyclopentadecin-6-yl)carbamate] are 5.01 to 35 nM and 5.01 to 35 nM.
For `Cc1cc(O[C@@H]2C[C@H]3C(=O)N[C@]4(C(=O)NS(=O)(=O)C5(C)CC5)C[C@H]4/C=C\CC[C@H](C)C[C@@H](C)[C@H](NC(=O)OC(C)(C)C(F)(F)F)C(=O)N3C2)cc(-c2cncs2)n1` [Compound 1016, 1,1,1-trifluoro-2-methylpropan-2-yl ((2R,6S,7R,9S,13aS,14aR,16aS,Z)-7,9-dimethyl-2-((2-methyl-6-(thiazol-5-yl)pyridin-4-yl)oxy)-14a-(((1-methylcyclopropyl)sulfonyl)carbamoyl)-5,16-dioxo-1,2,3,5,6,7,8,9,10,11,13a,14,14a,15,16,16a-hexadecahydrocyclopropa[e]pyrrolo[1,2-a][1,4]diazacyclopentadecin-6-yl)carbamate], the concentration giving a half-maximal response (EC50) was 35 to 359 nM in experiment [1] (read-out: LE_1a (EC50, range)) and 35 to 359 nM in experiment [2] (read-out: LE_1b (EC50, range)).
Turning to `CC(C)Oc1ccc(-c2cc(O[C@@H]3C[C@H]4C(=O)N[C@]5(C(=O)NS(=O)(=O)C6(C)CC6)C[C@H]5/C=C\CC[C@@H](C)C[C@@H](C)[C@H](NC(=O)OC5(C(F)(F)F)CCCOC5)C(=O)N4C3)cc(-c3cncs3)n2)cc1` (stereo partly drawn) [Compound 1017, 3-(trifluoromethyl)tetrahydro-2H-pyran-3-yl ((2R,6S,7R,9R,13aS,14aR,16aS,Z)-2-((2-(4-isopropoxyphenyl)-6-(thiazol-5-yl)pyridin-4-yl)oxy)-7,9-dimethyl-14a-(((1-methylcyclopropyl)sulfonyl)carbamoyl)-5,16-dioxo-1,2,3,5,6,7,8,9,10,11,13a,14,14a,15,16,16a-hexadecahydrocyclopropa[e]pyrrolo[1,2-a][1,4]diazacyclopentadecin-6-yl)carbamate], the EC50 in experiment [1] (read-out: LE_1a (EC50)) is 0.95 nM; in experiment [1] (read-out: LE_1a (EC50, range)), 0.51 to 1 nM; in experiment [2] (read-out: LE_1b (EC50)) it was 0.82 nM; in experiment [2] (read-out: LE_1b (EC50, range)), 0.51 to 1 nM.
Turning to `CC(C)Oc1ccc(-c2cc(O[C@@H]3C[C@H]4C(=O)N[C@]5(C(=O)NS(=O)(=O)C6(C)CC6)C[C@H]5/C=C\CC[C@H](C)C[C@@H](C)[C@H](NC(=O)OC5(C(F)(F)F)CCCOC5)C(=O)N4C3)cc(-c3cncs3)n2)cc1` (stereo partly drawn) [Compound 1018, 3-(trifluoromethyl)tetrahydro-2H-pyran-3-yl ((2R,6S,7R,9S,13aS,14aR,16aS,Z)-2-((2-(4-isopropoxyphenyl)-6-(thiazol-5-yl)pyridin-4-yl)oxy)-7,9-dimethyl-14a-(((1-methylcyclopropyl)sulfonyl)carbamoyl)-5,16-dioxo-1,2,3,5,6,7,8,9,10,11,13a,14,14a,15,16,16a-hexadecahydrocyclopropa[e]pyrrolo[1,2-a][1,4]diazacyclopentadecin-6-yl)carbamate], the concentration giving a half-maximal response (EC50) in experiment [1] (read-out: LE_1a (EC50, range)) lay within 5.01 to 35 nM; in experiment [2] (read-out: LE_1b (EC50, range)), 1.01 to 5 nM.
`CC(C)Oc1ccc(-c2cc(O[C@@H]3C[C@H]4C(=O)N[C@]5(C(=O)NS(=O)(=O)C6(C)CC6)C[C@H]5/C=C\CC[C@@H](C)C[C@@H](C)[C@H](NC(=O)OC(C)(C)C(F)(F)F)C(=O)N4C3)cc(-c3ncccn3)n2)cc1` [Compound 1019, 1,1,1-trifluoro-2-methylpropan-2-yl ((2R,6S,7R,9R,13aS,14aR,16aS,Z)-2-((2-(4-isopropoxyphenyl)-6-(pyrimidin-2-yl)pyridin-4-yl)oxy)-7,9-dimethyl-14a-(((1-methylcyclopropyl)sulfonyl)carbamoyl)-5,16-dioxo-1,2,3,5,6,7,8,9,10,11,13a,14,14a,15,16,16a-hexadecahydrocyclopropa[e]pyrrolo[1,2-a][1,4]diazacyclopentadecin-6-yl)carbamate]: the EC50 in experiment [1] (read-out: LE_1a (EC50, range)) was in the range of 1.01 to 5 nM; in experiment [2] (read-out: LE_1b (EC50, range)), 1.01 to 5 nM.
In the case of `CC(C)Oc1ccc(-c2cc(O[C@@H]3C[C@H]4C(=O)N[C@]5(C(=O)NS(=O)(=O)C6(C)CC6)C[C@H]5/C=C\CC[C@H](C)C[C@@H](C)[C@H](NC(=O)OC(C)(C)C(F)(F)F)C(=O)N4C3)cc(-c3ncccn3)n2)cc1` [Compound 1020, 1,1,1-trifluoro-2-methylpropan-2-yl ((2R,6S,7R,9S,13aS,14aR,16aS,Z)-2-((2-(4-isopropoxyphenyl)-6-(pyrimidin-2-yl)pyridin-4-yl)oxy)-7,9-dimethyl-14a-(((1-methylcyclopropyl)sulfonyl)carbamoyl)-5,16-dioxo-1,2,3,5,6,7,8,9,10,11,13a,14,14a,15,16,16a-hexadecahydrocyclopropa[e]pyrrolo[1,2-a][1,4]diazacyclopentadecin-6-yl)carbamate], the concentration giving a half-maximal response (EC50) in experiment [1] (read-out: LE_1a (EC50, range)) fell in the range of 5.01 to 35 nM; in experiment [2] (read-out: LE_1b (EC50, range)) it was 1.01 to 5 nM.
